Source: US20030022906A1, “Use of pde v inhibitors” (priority 2000, published 2003)

Experiments:
[1] = test system: normotensive Wistar rats; assay: Telemetric measurements of blood pressure and heart rate over 24 hours in normotensive Wistar rats; format: in vivo, rat; settings: 30, 100 and 300 mg/kg p.o.; telemetry over 24 hours
[2] = test system: spontaneously hypertensive rats; assay: Telemetric measurements of blood pressure and heart rate over 24 hours in spontaneously hypertensive rats; format: in vivo, rat; settings: 3, 10 and 30 mg/kg p.o.; telemetry over 24 hours
Protocol: Telemetric Measurements of Blood Pressure and Heart Rate Over 24 Hours in Spontaneously Hypertensive Rats
Measurements of 3, 10 and 30 mg of substance/1 kg of body weight/p.o.

[3] = test system: anaesthetized dogs with open thorax; assay: Haemodynamics in anaesthetized dogs with open thorax; format: in vivo, dog
From the text: (§1) All dose amounts are i.d. (intraduodenal), unless stated otherwise.

[4] = test system: anaesthetized dogs with open thorax; assay: Nitrate interaction in anaesthetized dogs with open thorax (i.v. infusion of isosorbitol dinitrate); format: in vivo, dog; settings: i.d., permanent i.v. infusion of isosorbitol dinitrate 50 μg/kg of body weight/hour
Protocol: Investigations of Nitrate Interaction of EMD 221829 and Sildenafil
The model and administration are as in B, but both test substances are administered with simultaneous permanent i.v. infusion of isosorbitol dinitrate (50 μg/kg of body weight/hour).

[5] = test system: spontaneously hypertensive rats; assay: Nitrate interaction in spontaneously hypertensive rats; format: in vivo, rat; settings: i.v. cumulative 0.1, 0.3, 1, 3 or 10 mg/kg; infusion of isosorbitol dinitrate 100 μg/kg of body weight/hour
Protocol: Nitrate Interaction in Spontaneously Hypertensive Rats
Method: surgical instrumentation and measurement of blood pressure and heart rate after intravenous cumulative administration of either EMD 221829 or sildenafil (0.1, 0.3, 1, 3 or 10 mg/kg of body weight) with simultaneous infusion of isosorbitol dinitrate (100 μg/kg of body weight/hour).

[6] = test system: anaesthetized dogs with closed thorax; assay: Erectile function in anaesthetized dogs with closed thorax (pressure in corpus cavernosum rigidum); format: in vivo, dog; settings: 1 mg of substance/1 kg of body weight i.d.; erection initiated by stimulation of the nervus pelvinus
Protocol: as §1
(§2) Measurements of Erectile Function in Anaesthetized Dogs with Closed Thorax
Erections of various extent were initiated by stimulation variation of the nervus pelvinus. The pressure in the corpus cavernosum rigidum [CCR] was measured.

[7] = test system: anaesthetized dogs with closed thorax; assay: Blood pressure and heart rate measured at the same time in anaesthetized dogs with closed thorax; format: in vivo, dog; settings: 1 mg/kg i.d.
Protocol: as §1, §2
At the same time, the blood pressure and heart rate were measured.

[8] = "in this dose" (100 mg of substance/1 kg of body weight) i.d.

haemodynamic parameters compared with sildenafil ([3]; 1 mg of substance/1 kg of body weight i.d.)	Structure (SMILES)	blood pressure [1]	heart rate [1]	blood pressure [2]	blood pressure [3, 8]	heart rate [3, 8]	changes in blood pressure and heart rate with simultaneous administration of nitrate [4]	blood pressure [5]	heart rate [5]	stimulation of erection (pressure in the corpus cavernosum rigidum) [6]	effect on haemodynamic parameters (blood pressure and heart rate) [7]	cardiovascular side effects (reduction in blood pressure with reflex increase in heart rate) ([3]; i.d.)	dose from which effects on the blood pressure and heart rate are measurable ([3]; i.d.)
	CCCc1nn(C)c2c(=O)[nH]c(-c3cc(S(=O)(=O)N4CCN(C)CC4)ccc3OCC)nc12 [sildenafil, reference compound]	significant dose-dependent reduction	increase	significant dose-dependent reduction	reduction	increase	significantly increased	dose-dependent drop	increase	Corresponding results			
clear difference	COc1ccc(CNc2nc(C3CCC(C(=O)O)CC3)nc3sc4ccccc4c23)cc1Cl.NCCO (stereo not drawn) [EMD 221829, trans-4-[4-(3-chloro-4-methoxybenzylamino)benzo[4,5]-thieno[2,3-d]pyrimidin-2-yl]cyclohexanecarboxylic acid, ethanolamine salt]	no changes	no changes	no change			no changes	no change	no change	stimulates submaximal erection	no effect	no cardiovascular side effects	≥ 100 mg of substance/1 kg of body weight
